# Results from patent US20090022806A1, “Nanoparticle and polymer formulations for thyroid hormone analogs, antagonists and formulations and uses thereof” (priority 2006, published 2009).
# Values joined by “and” are separate entries in the source; they are usually repeats but may differ in a detail not shown here. Equal values may be shown once. “Also recorded” adds a separate entry of the source.
# Columns and labels:
# [1] = tested on: citrated human whole blood; assay: Thromboelastography (TEG) clot dynamics; settings: 25 ng TF + 2.25 mM Ca^+2 or 10 mM Ca^+2; n = 4
# Protocol: Thromboelastography (TEG) has been used in various hospital settings since its development by Hartert in 1948. The principle of TEG is based on the measurement of the physical viscoelastic characteristics of blood clot. Clot formation was monitored at 37° C. in an oscillating plastic cylindrical cuvette (“cup”) and a coaxially suspended stationary piston (“pin”) with a 1 mm clearance between the surfaces, using a computerized Thrombelastograph (TEG Model 3000, Haemoscope, Skokie, Ill.). The cup oscillates in either direction every 4.5 seconds, with a 1 second mid-cycle stationary period; resulting in a frequency of 0.1 Hz and a maximal shear rate of 0.1 per second. The pin is suspended by a torsion wire that acts as a torque transducer. […] The torque experienced by the pin (relative to the cup's oscillation) is plotted as a function of time (FIG. 58).
# TEG assesses coagulation by measuring various parameters such as the time latency for the initial initiation of the clot (R), the time to initiation of a fixed clot firmness (k) of about 20 mm amplitude, the kinetic of clot development as measured by the angle (α), and the maximum amplitude of the clot (MA). The parameter A measures the width of the tracing at any point of the MA. Amplitude A in mm is a function of clot strength or elasticity. The amplitude on the TEG tracing is a measure of the rigidity of the clot; the peak strength or the shear elastic modulus attained by the clot, G, is a function of clot rigidity and can be calculated from the maximal amplitude (MA) of the TEG tracing.
# The following parameters were measured from the TEG tracing: • R, the reaction time (gelation time) represents the latent period before the establishment of a 3-dimensional fibrin gel network (with measurable rigidity of about 2 mm amplitude). • Maximum Amplitude (MA, in mm), is the peak rigidity manifested by the clot. • Shear elastic modulus or clot strength (G, dynes/cm^2) is defined by:
# Blood was drawn from consenting volunteers under a protocol approved by the Human Investigations Committee of William Beaumont Hospital. Using the two syringe method, samples were drawn through a 21 gauge butterfly needle and the initial 3 ml blood was discarded.
# [2] = tested on: Human dermal micro-vascular endothelial cells (HDMEC); assay: Three-dimensional human micro-vascular endothelial sprouting assay; assay type: cell-based
# Protocol: In Vitro Three-Dimensional Sprout Angiogenesis of Human Dermal Micro-Vascular Endothelial Cells (HDMEC) Cultured on Micro-Carrier Beads Coated with Fibrin: Confluent HDMEC (passages 5-10) were mixed with gelatin-coated Cytodex-3 beads with a ratio of 40 cells per bead. Cells and beads (150-200 beads per well for 24-well plate) were suspended with 5 ml EBM+15% normal human serum, mixed gently every hour for first 4 hours, then left to culture in a CO2 incubator overnight. The next day, 10 ml of fresh EBM+5% HS were added, and the mixture was cultured for another 3 hours. Before experiments, the culture of EC-beads was checked; then 500 ul of PBS was added to a well of 24-well plate, and 100 ul of the EC-bead culture solution was added to the PBS. The number of beads was counted, and the concentration of EC/beads was calculated.
# A fibrinogen solution (1 mg/ml) in EBM medium with or without angiogenesis factors or testing factors was prepared. For positive control, 50 ng/ml VEGF+25 ng/ml FGF2 was used. EC-beads were washed with EBM medium twice, and EC-beads were added to fibrinogen solution. The experiment was done in triplicate for each condition. The EC-beads were mixed gently in fibrinogen solution, and 2.5 ul human thrombin (0.05 U/ul) was added in 1 ml fibrinogen solution; 300 ul was immediately transferred to each well of a 24-well plate. The fibrinogen solution polymerizes in 5-10 minutes; after 20 minutes, we added EBM+20% normal human serum+10 ug/ml aprotinin. The plate was incubated in a CO2 incubator. It takes about 24-48 hours for HDMEC to invade fibrin gel and form tubes.
# A micro-carrier in vitro angiogenesis assay previously designed to investigate bovine pulmonary artery endothelial cell angiogenic behavior in bovine fibrin gels [Nehls and Drenckhahn, 1995a, b] was modified for the study of human microvascular endothelial cell angiogenesis in three-dimensional ECM environments (FIGS. 1 and 2). Briefly, human fibrinogen, isolated as previously described [Feng et al, 1999], was dissolved in M199 medium at a concentration of 1 mg/ml (pH 7.4) and sterilized by filtering through a 0.22 micron filter. An isotonic 1.5 mg/ml collagen solution was prepared by mixing sterile Vitrogen 100 in 5×M199 medium and distilled water. The pH was adjusted to 7.4 by 1N NaOH. In certain experiments, growth factors and ECM proteins (such as VEGF, bFGF, PDGF-BB, serum, gelatin, and fibronectin) were added to the fibrinogen or collagen solutions. About 500 EC-beads were then added to the 1 mg/ml fibrinogen or 1.5 mg/ml collagen solutions. Subsequently, EC-beads-collagen or EC-beads-fibrinogen suspension (500 EC-beads/ml) was plated onto 24-well plates at 300 ul/well. EC-bead-collagen cultures were incubated at 37° C. to form gel. The gelling of EC-bead-fibrin cultures occurred in less than 5 minutes at room temperature after the addition of thrombin to a final concentration of 0.5 U/ml. After gelation, 1 ml of fresh assay medium (EBM supplemented with 20% normal human serum for HDMEC or EBM supplemented with 10% fetal bovine serum was added to each well. The angiogenic response was monitored visually and recorded by video image capture. Specifically, capillary sprout formation was observed and recorded with a Nikon Diaphot-TMD inverted microscope (Nikon Inc.; Melville, N.Y.), equipped with an incubator housing with a Nikon NP-2 thermostat and Sheldon #2004 carbon dioxide flow mixer. The microscope was directly interfaced to a video system consisting of a Dage-MTI CCD-72S video camera and Sony 12″ PVM-122 video monitor linked to a Macintosh G3 computer. The images were captured at various magnifications using Adobe Photoshop. The effect of angiogenic factors on sprout angiogenesis was quantified visually by determining the number and percent of EC-beads with capillary sprouts. One hundred beads (five to six random low power fields) in each of triplicate wells were counted for each experimental condition. All experiments were repeated at least three times. […]
# [3] = tested on: chick chorioallantoic membrane (CAM); assay: Chick chorioallantoic membrane (CAM) assay of angiogenesis; assay type: in vivo; settings: for effect on angiogenesis produced by T4: PTU applied to filter disks (1 mmol/L)
# Protocol: Chorioallantoic membrane (CAM) Model of Angiogenesis: In vivo Neovascularization was examined by methods described previously. 9-12 Ten-day-old chick embryos were purchased from SPAFAS (Preston, Conn.) and incubated at 37° C. with 55% relative humidity. A hypodermic needle was used to make a small hole in the shell concealing the air sac, and a second hole was made on the broad side of the egg, directly over an avascular portion of the embryonic membrane that was identified by candling. A false air sac was created beneath the second hole by the application of negative pressure at the first hole, causing the CAM to separate from the shell. A window approximately 1.0 cm 2 was cut in the shell over the dropped CAM with a small-crafts grinding wheel (Dremel, division of Emerson Electric Co.), allowing direct access to the underlying CAM. FGF2 (1 μg/mL) was used as a standard proangiogenic agent to induce new blood vessel branches on the CAM of 10-day-old embryos. Sterile disks of No. 1 filter paper (Whatman International) were pretreated with 3 mg/mL cortisone acetate and 1 mmol/L PTU and air dried under sterile conditions. Thyroid hormone, hormone analogues, FGF2 or control solvents, and inhibitors were then applied to the disks and the disks allowed to dry. The disks were then suspended in PBS and placed on growing CAMs. […] At 24 hours, the MAPK cascade inhibitor PD 98059 was also added to CAMs topically by means of the filter disks.
# After incubation at 37° C. with 55% relative humidity for 3 days, the CAM tissue directly beneath each filter disk was resected from control and treated CAM samples. Tissues were washed 3× with PBS, placed in 35-mm Petri dishes (Nalge Nunc), and examined under an SV6 stereomicroscope (Zeiss) at ×50 magnification. Digital images of CAM sections exposed to filters were collected using a 3-charge-coupled device color video camera system (Toshiba) and analyzed with Image-Pro software (Media Cybernetics). The number of vessel branch points contained in a circular region equal to the area of each filter disk were counted. One image was counted in each CAM preparation, and findings from 8 to 10 CAM preparations were analyzed for each treatment condition (thyroid hormone or analogues, FGF2, FGF2 antibody, PD 98059). In addition, each experiment was performed 3 times. The resulting angiogenesis index is the mean±SEM of new branch points in each set of samples.
# Ten-day-old chick embryos were purchased £tom SPAFAS (Preston, Conn.) and were incubated at 37° C. with 55% relative humidity. A hypodermic needle was used to make a small hole in the blunt end of the egg and a second hole was made on the broad side of the egg, directly over an avascular portion of the embryonic membrane. Mild suction was applied to the first hole to displace the air sac and drop the CAM away from the shell. Using a Dremel model craft drill (Dremel, Racine, Wis.), a approx. 1.0 cm^2 window was cut in the shell over the false air sac, allowing access to the CAM. Sterile disks of No. 1 filter paper (Whatman, Clifton, N.J.) were pretreated with 3 mg/ml cortisone acetate and 1 mMm propylthiouracil and air dried under sterile conditions. […] The disks were then suspended in PBS and placed on growing CAMS. After incubation for 3 days, the CAM beneath the filter disk was resected and rinsed with PBS. Each membrane was placed in a 35 mm Petri dish and examined under an SV6 stereo-microscope at 50× magnification. Digital images were captured and analyzed with Image-Pro software (Mediacybemetics). The number of vessel branch points contained in a circular region equal to the filter disk were counted. One image from each of 8-10 CAM preparations for each treatment condition was counted, and in addition each experiment was performed 3 times.
# Ten-day-old chick embryos were purchased from SPAFAS (Preston, Conn.) and were incubated at 37° C. with 55% relative humidity. Chick CAM assays were performed as previously described.
# [4] = tested on: phosphorylated ERK1/2 in ECV304 endothelial cells; assay: MAPK (ERK1/2) activation in ECV304 cells, nuclear pERK1/2 immunoblot; assay type: cell-based; settings: PD 98059 30 μmol/L or CGP41251 100 nmol/L for 30 minutes before 10^−7 M T4
# Protocol: ECV304 endothelial cells were cultured in M199 medium with 0.25% hormone-depleted serum 13 for 2 days. […] Nuclear fractions were pre-pared from all samples by our method reported previously, the proteins separated by polyacrylamide gel electrophoresis, and transferred to membranes for immunoblotting with antibody to phosphorylated ERK 1/2.
# HMVEC-d cells = assay: Microarray analysis (Affymetrix Human U133 Plus 2.0) of HMVEC-d cells; assay type: cell-based
# Protocol: Microarray Analysis Ten micrograms of total RNA from HMVEC-d cells was amplified and biotin-labeled according to GeneChip Expression Analysis Technical Manual (Affymetrix, Santa Clara, Calif.). Fragmented cRNA was hybridized with human gene chip U133 PLUS 2 (Affymetrix); chips were washed and stained with streptavidin R-phycoerythrin (Molecular Probes, Eugene, Oreg.). The chips were scanned and the data were analyzed with Microarray Suite and Data Mining Tool (Affymetrix).
# To further identify possible mechanisms of tetrac inhibition of VEGF-stimulated angiogenesis, microarray analysis was performed using the Human U133 Plus 2.0 array from Affymetrix. HDMEC cells were incubated with VEGF at 50 ng/ml for 24 hours with and without Tetrac (3 uM). […] As shown in FIGS. 49A-C, Angiopoietin-like 1 (ANGPTL-1, probe set ID # 231773) expression was increased 5.9 fold following VEGF treatment.
# [5] = hormone 0.1 uM alone, pretreated FGF2 1.25 ng/ml + VEGF […], day 3
# [6] = VEGF 50 ng/ml, 24 hours, vs untreated
compound,measurement,setting,value
"[Ca+2].[Cl-].[Cl-] [Ca^+2, Calcium Chloride]",K,[1],7.0 ± 0.7 min
same,MA (mm),[1],56.5 ± 2.2 mm
same,r,[1],14.5 ± 2.5 min
same,α (angle),[1],47.3 ± 2.7 angle
COc1cccc(-c2cc(=O)c3ccccc3o2)c1N [PD 98059],"inhibition of the pro-angiogenesis action of T3, T4 or T4-agarose","[2]; tetrac 0.1 μM, PD 98059, XT199",significantly (P<0.01) blocked
same,inhibition of angiogenesis induced by FGF2 (1 μg/mL),[3]; PD 98059,effectively blocked; also recorded: also inhibited
same,inhibition of angiogenesis stimulated by T4 (0.1 μmol/L) and T3 (1 nmol/L) together,[3]; PD 98059 3 μmol/L,completely blocked; also recorded: fully inhibited
same,block of the pro-angiogenesis effect of T4 or FGF2,[3]; PD 98059 at 0.8-8 μg,totally blocked
same,inhibition of T4-induced ERK1/2 activation,[4],inhibited; also recorded: blocked by both inhibitors
"CCCc1cc(=O)[nH]c(=S)[nH]1 [PTU, 6-N-propyl-2-thiouracil]",effect on angiogenesis produced by T4,[3],no inhibitory effect
same,effect on angiogenesis produced by T4,[3]; listed as Propylthiouracil,has no effect
"N[C@@H](Cc1cc(I)c(Oc2ccc(O)c(I)c2)c(I)c1)C(=O)O [T3, 3,5,3′-triiodo-L-thyronine]",stimulation of angiogenesis,[2]; 0.01-0.1 μM,significant (P<0.01) stimulation of angiogenesis
same,Mean Tube Vessel Length (mm) ± SD,"[2]; FGF2 25 ng + VEGF 50 ng, T3 20 ng, T4 23 ng, T4-agarose 23 ng, pre-treated with FGF2 1.25 ng/ml + VEGF […]",1.88 ± 0.21 mm
same,Mean number of Migrated cells ± SD,[2]; [5],188 ± 15
same,Mean vessel Length (mm) ± SD,[2]; [5],0.91 ± 0.04 mm
"O=C(O)Cc1cc(I)c(Oc2ccc(O)c(I)c2)c(I)c1 [TRIAC, triiodothyroacetic acid]",block of the pro-angiogenic effect of T4 or T4-agarose,[3]; CAM model,100%
"FGF2: human recombinant FGF2, standard proangiogenic agent",fold increase in angiogenesis index,[3]; 1 μg of FGF2,2-3 fold
same,fold increase in blood vessel branch formation,"[3]; FGF2 1 μg/ml on filter disk, vs PBS",2.2 fold and 2.4 fold
same,fold increase in angiogenesis,"[3]; FIG. 4 experiment with FGF2 antibody, concentration not given, 3 experiments",2 fold
VEGF,ANGPTL-3 expression,"HMVEC-d cells; VEGF 50 ng/ml, 24 hours",unaffected
same,"ANGPTL-1 expression, fold increase",HMVEC-d cells; [6],5.9 fold
same,"ANGPTL-2 expression, fold increase",HMVEC-d cells; [6],1.6 fold
same,"MMP-15 expression, fold increase",HMVEC-d cells; VEGF treatment,5.1 fold
same,"MMP-19 expression, fold increase",HMVEC-d cells; VEGF treatment,2.9 fold
same,MMP-24 expression,HMVEC-d cells; VEGF treatment,slightly decreased
